Holding throughout (format): in vivo
One data set has as its system transplanted rice plant. Nature of the data set: Test Example 1: effect on crop, application before weed generation in submerged conditions (symbol a). Particulars: application herbicide amount 320 g/ha. An outline of the steps: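 Alluvial soil pots flooded to 4 cm water, sown with Echinochloa oryzacola, Scirpus juncoides and Monochoria vaginalis, then transplanted with 2.5 leaf stage rice seedlings; pre-emergence application. Greenhouse 25° C. to 30° C.; scored 0–5 by herbicidal ratio 3 weeks after application.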

Data set [1] deals with Chenopodium album. The experiment in a line: Test Example 4: herbicidal effect by soil treatment (symbol O). The following applies: application herbicide amount 320 g/ha. An outline of the steps:
(§1)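 Seeds were sown in sterilized diluvial soil, covered with about 1.5 cm of soil, and the soil surface was sprayed with a water-diluted emulsion of the compound at a predetermined rate. Plants grew in a greenhouse at 25° C. to 30° C.; effects were scored visually 3 weeks after application.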

Data set [2] relates to directly sowed rice plant. Nature of the data set: Test Example 3: effect on crop by foliage application, Wagner pot (symbol b). The following applies: application herbicide amount 320 g/ha. In short, it runs like this: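 Wagner pot (1/10000 are), alluvial soil, submerged 0.1–0.5 cm; sown E. crus-galli var. crus-galli, L. chinensis, C. difformis, rice; greenhouse 25–30 °C.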

The subject of another data set is Abutilon theophrasti. Nature of the data set: Test Example 5: herbicidal effect by foliage application, plastic box (symbol M). The following applies: 320 g/ha, 3 weeks after application. An outline of the steps: (§2)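 Visual herbicidal score, taken three weeks post-application, of seedlings sprayed on the foliage with water-diluted emulsion at a predetermined amount; plants were 14 days old, greenhouse-raised at 25° C. to 30° C.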

The next data set has as its system Stellaria media. The experiment in a line: Test Example 5: herbicidal effect by foliage application, plastic box (symbol P). The following applies: 320 g/ha, 3 weeks after application. An outline of the steps: as §2
The subject of the next data set is Cyperus difformis. The experiment in a line: Test Example 3: herbicidal effect by foliage application, Wagner pot (symbol E). The following applies: application herbicide amount 320 g/ha. An outline of the steps: (§3)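 Foliar spray of a water-diluted emulsion at a predetermined herbicide amount, applied to 14-day-old plants. Seedlings were raised in flooded alluvial soil (0.1–0.5 cm water) at 25–30 °C in a greenhouse. Injury was rated after 3 weeks against fixed criteria.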

Another data set has as its system Monochoria vaginalis. Nature of the data set: Test Example 2: herbicidal activity, application during weed generation in submerged conditions (symbol C). The following applies: Table 23; application herbicide amount 320 g/ha; grade 0-5 by criteria of Test Example 1. An outline of the steps:
(§4)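 Scoring of herbicidal effect took place 3 weeks after treatment, using the criteria of the earlier test. Treatment was water-surface application of diluted emulsifiable compound at a set dose. Plants were at one- to two-leaf stage in submerged alluvial soil (4 cm depth), greenhouse 25-30° C.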

Data set [3] concerns Chenopodium album. Nature of the data set: Test Example 5: herbicidal effect by foliage application, plastic box (symbol O). Particulars: 320 g/ha, 3 weeks after application. An outline of the steps:
as §2

Data set [4] relates to Echinochloa crus-galli var. crus-galli. Nature of the data set: Test Example 3: herbicidal effect by foliage application, Wagner pot (symbol H). The following applies: application herbicide amount 320 g/ha. In short, it runs like this:
as §3

Data set [5] has the same test system. Nature of the data set: Test Example 4: herbicidal effect by soil treatment (symbol H). The following applies: application herbicide amount 320 g/ha. An outline of the steps: as §1
Another data set deals with rapeseed. The experiment in a line: Test Example 4: effect on crop by soil treatment (symbol g). Particulars: application herbicide amount 320 g/ha. An outline of the steps:
(§5)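 Seeds were sown in spots on sterilized diluvial soil in a plastic box and covered with about 1.5 cm of soil. Plants were then grown in a greenhouse at 25° C. to 30° C.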

A further data set relates to Leptochloa chinensis. Nature of the data set: Test Example 3: herbicidal effect by foliage application, Wagner pot (symbol D). Particulars: application herbicide amount 320 g/ha. In short, it runs like this:
as §3

For a further data set, the system named is Apera spica-venti. The experiment in a line: Test Example 5: herbicidal effect by foliage application, plastic box (symbol L). The following applies: 320 g/ha, 3 weeks after application. In short, it runs like this:
as §2

The test system of a further data set is Scirpus juncoides. Nature of the data set: Test Example 2: herbicidal activity, application during weed generation in submerged conditions (symbol B). Particulars: Table 23; application herbicide amount 320 g/ha; grade 0-5 by criteria of Test Example 1. In short, it runs like this:
as §4

The next data set has as its system beet. Nature of the data set: Test Example 4: effect on crop by soil treatment (symbol f). The following applies: application herbicide amount 320 g/ha. An outline of the steps: as §5

Each structure is given as a SMILES string.

For `CON=C(C)CC1CC(OC(=O)COc2ccccc2)=C(c2c(C)cc(-c3ccc(Cl)cc3Cl)cc2C)C1=O` (stereo not drawn) [6-092], the “Effect grade on crop, a: transplanted rice plant” value (shortened to “Effect grade on crop”) in the data set on transplanted rice plant was 0 (Herbicidal ratio of 5% or lower (almost no effect)). The “Herbicidal effect grade, O: Chenopodium album” value (“Herbicidal effect grade, O” for short) with Chenopodium album [1] is listed as 0 (Herbicidal ratio of 5% or lower (almost no effect)). In data set [2], the “effect on crop b (directly sowed rice plant), grade 0-5” value (“effect on crop b” for short) is recorded as 5 (Herbicidal ratio of 90% or more (almost completely withered)). For the same compound, the “M: Abutilon theophrasti, herbicidal effect (criteria of Test Example 1)” value (shortened to “M: Abutilon theophrasti”) in the data set with Abutilon theophrasti is recorded as 0 (Herbicidal ratio of 5% or lower (almost no effect)). Further, the “P: Stellaria media, herbicidal effect (criteria of Test Example 1)” value (“P: Stellaria media, herbicidal effect” below) in the data set with Stellaria media is 3 (Herbicidal ratio of 40% or higher and lower than 70%). For the same compound, the “herbicidal effect on E, grade 0-5” value in the data set on Cyperus difformis was 4 (Herbicidal ratio of 70% or higher and lower than 90%). Moreover, in the data set on Monochoria vaginalis, the “Herbicidal effect grade, C: Monochoria vaginalis” value (“Herbicidal effect grade, C” for short) was 0 (Herbicidal ratio of 5% or lower (almost no effect)). In addition, in the data set on Chenopodium album [3], the “O: Chenopodium album, herbicidal effect (criteria of Test Example 1)” value (“O: Chenopodium album, herbicidal effect” below) was 5 (Herbicidal ratio of 90% or more (almost completely withered)). Further, the “herbicidal effect on H (Echinochloa crus-galli var. crus-galli), grade 0-5” value (shortened to “herbicidal effect on H”) in data set [4] is on record as 5 (Herbicidal ratio of 90% or more (almost completely withered)). The “Herbicidal effect grade, H: Echinochloa crus-galli var. crus-galli” value (shortened to “Herbicidal effect grade, H”) in data set [5] was 3 (Herbicidal ratio of 40% or higher and lower than 70%). Moreover, in the data set with rapeseed, the “Effect on crop grade, g: rapeseed” value is recorded as 0 (Herbicidal ratio of 5% or lower (almost no effect)). Also, the “herbicidal effect on D (Leptochloa chinensis), grade 0-5” value (shortened to “herbicidal effect on D”) with Leptochloa chinensis was 5 (Herbicidal ratio of 90% or more (almost completely withered)). In the data set with Apera spica-venti, the “L: Apera spica-venti, herbicidal effect (criteria of Test Example 1)” value (“L: Apera spica-venti, herbicidal effect” for short) is 3 (Herbicidal ratio of 40% or higher and lower than 70%). The “Herbicidal effect grade, B: Scirpus juncoides” value (“Herbicidal effect grade, B” below) in the data set with Scirpus juncoides was 0 (Herbicidal ratio of 5% or lower (almost no effect)). Also, the “Effect on crop grade, f: beet” value with beet is on record as 0 (Herbicidal ratio of 5% or lower (almost no effect)).

Take `CON=C(C)CC1CC(OC(=O)N2CCOCC2)=C(c2c(C)cc(C)cc2OC)C1=O` (stereo not drawn) [6-094]: in the data set with transplanted rice plant, the “Effect grade on crop” value was 5 (Herbicidal ratio of 90% or more (almost completely withered)). The “Herbicidal effect grade, O” value with Chenopodium album [1] is listed as 5 (Herbicidal ratio of 90% or more (almost completely withered)). Also, in data set [2], the “effect on crop b” value is 5 (Herbicidal ratio of 90% or more (almost completely withered)). Moreover, the “M: Abutilon theophrasti” value with Abutilon theophrasti was 4 (Herbicidal ratio of 70% or higher and lower than 90%). In addition, in the data set on Stellaria media, the “P: Stellaria media, herbicidal effect” value is 3 (Herbicidal ratio of 40% or higher and lower than 70%). Further, the “herbicidal effect on E, grade 0-5” value in the data set with Cyperus difformis is on record as 5 (Herbicidal ratio of 90% or more (almost completely withered)). Also, the “Herbicidal effect grade, C” value in the data set on Monochoria vaginalis was 1 (Herbicidal ratio of 5% or higher and lower than 20%). In the data set on Chenopodium album [3], the “O: Chenopodium album, herbicidal effect” value was 5 (Herbicidal ratio of 90% or more (almost completely withered)). The “herbicidal effect on H” value in [4] was 5 (Herbicidal ratio of 90% or more (almost completely withered)). Further, the “Herbicidal effect grade, H” value in data set [5] is given as 5 (Herbicidal ratio of 90% or more (almost completely withered)). Moreover, the “Effect on crop grade, g: rapeseed” value in the data set on rapeseed was 4 (Herbicidal ratio of 70% or higher and lower than 90%). The “herbicidal effect on D” value with Leptochloa chinensis is listed as 5 (Herbicidal ratio of 90% or more (almost completely withered)). In the data set on Apera spica-venti, the “L: Apera spica-venti, herbicidal effect” value is recorded as 5 (Herbicidal ratio of 90% or more (almost completely withered)). In addition, the “Herbicidal effect grade, B” value with Scirpus juncoides is 2 (Herbicidal ratio of 20% or higher and lower than 40%). The “Effect on crop grade, f: beet” value in the data set with beet is 0 (Herbicidal ratio of 5% or lower (almost no effect)).

As for `CON=C(C)CC1CC(OS(=O)(=O)N(C)C)=C(c2c(C)cc(C)cc2OC)C1=O` (stereo not drawn) [6-095], the “Effect grade on crop” value with transplanted rice plant is on record as 5 (Herbicidal ratio of 90% or more (almost completely withered)). Moreover, the “Herbicidal effect grade, O” value in the data set with Chenopodium album [1] was 0 (Herbicidal ratio of 5% or lower (almost no effect)). In addition, the “effect on crop b” value in data set [2] is 5 (Herbicidal ratio of 90% or more (almost completely withered)). Besides, in the data set on Abutilon theophrasti, the “M: Abutilon theophrasti” value is 4 (Herbicidal ratio of 70% or higher and lower than 90%). In addition, the “P: Stellaria media, herbicidal effect” value with Stellaria media is 1 (Herbicidal ratio of 5% or higher and lower than 20%). Further, the “herbicidal effect on E, grade 0-5” value in the data set on Cyperus difformis is 5 (Herbicidal ratio of 90% or more (almost completely withered)). In addition, in the data set with Monochoria vaginalis, the “Herbicidal effect grade, C” value was 2 (Herbicidal ratio of 20% or higher and lower than 40%). Also, the “O: Chenopodium album, herbicidal effect” value with Chenopodium album [3] is recorded as 5 (Herbicidal ratio of 90% or more (almost completely withered)). Also, the “herbicidal effect on H” value in data set [4] is given as 5 (Herbicidal ratio of 90% or more (almost completely withered)). Moreover, in [5], the “Herbicidal effect grade, H” value is given as 5 (Herbicidal ratio of 90% or more (almost completely withered)). Besides, in the data set on rapeseed, the “Effect on crop grade, g: rapeseed” value was 4 (Herbicidal ratio of 70% or higher and lower than 90%). Also, in the data set on Leptochloa chinensis, the “herbicidal effect on D” value was 5 (Herbicidal ratio of 90% or more (almost completely withered)). Further, the “L: Apera spica-venti, herbicidal effect” value in the data set on Apera spica-venti is given as 5 (Herbicidal ratio of 90% or more (almost completely withered)). The “Herbicidal effect grade, B” value with Scirpus juncoides was 3 (Herbicidal ratio of 40% or higher and lower than 70%). Further, in the data set with beet, the “Effect on crop grade, f: beet” value was 0 (Herbicidal ratio of 5% or lower (almost no effect)).

Regarding `CON=C(C)CC1CC(O)=C(c2c(C)cccc2C)C1=O` (stereo not drawn) [6-112], in the data set with transplanted rice plant, the “Effect grade on crop” value is 4 (Herbicidal ratio of 70% or higher and lower than 90%). For the same compound, the “Herbicidal effect grade, O” value with Chenopodium album [1] is 0 (Herbicidal ratio of 5% or lower (almost no effect)). Also, the “effect on crop b” value in data set [2] is given as 5 (Herbicidal ratio of 90% or more (almost completely withered)). The “M: Abutilon theophrasti” value in the data set on Abutilon theophrasti was 4 (Herbicidal ratio of 70% or higher and lower than 90%). Also, the “P: Stellaria media, herbicidal effect” value in the data set on Stellaria media is 1 (Herbicidal ratio of 5% or higher and lower than 20%). In addition, in the data set with Cyperus difformis, the “herbicidal effect on E, grade 0-5” value was 4 (Herbicidal ratio of 70% or higher and lower than 90%). Further, the “Herbicidal effect grade, C” value with Monochoria vaginalis was 0 (Herbicidal ratio of 5% or lower (almost no effect)). Moreover, the “O: Chenopodium album, herbicidal effect” value in the data set on Chenopodium album [3] is 0 (Herbicidal ratio of 5% or lower (almost no effect)). Further, the “herbicidal effect on H” value in [4] was 5 (Herbicidal ratio of 90% or more (almost completely withered)). Besides, the “Herbicidal effect grade, H” value in data set [5] is 5 (Herbicidal ratio of 90% or more (almost completely withered)). In addition, the “Effect on crop grade, g: rapeseed” value in the data set with rapeseed is on record as 0 (Herbicidal ratio of 5% or lower (almost no effect)). Besides, the “herbicidal effect on D” value in the data set with Leptochloa chinensis is recorded as 5 (Herbicidal ratio of 90% or more (almost completely withered)). Besides, the “L: Apera spica-venti, herbicidal effect” value with Apera spica-venti is recorded as 5 (Herbicidal ratio of 90% or more (almost completely withered)). Moreover, the “Herbicidal effect grade, B” value in the data set on Scirpus juncoides is 0 (Herbicidal ratio of 5% or lower (almost no effect)). Further, the “Effect on crop grade, f: beet” value in the data set with beet is listed as 0 (Herbicidal ratio of 5% or lower (almost no effect)).

Values taken from patent publication US11000033B2, “Ketone or oxime compound, and herbicide” (NISSAN CHEMICAL CORPORATION, priority 2014, dated 2021).
